Experimental data reported in US20020193425A1, “Cancer chemopreventative compounds and compositions and methods of treating cancers” (priority 2001, published 2002).
Values after ≈ are worked out from the molar mass of the structure shown.

Experiments:
BV173 = assay: Antiproliferative activity, [3H]thymidine incorporation; assay type: cell-based; settings: four days
Method: (§1) Cellular viability was monitored by Trypan blue exclusion.
(§2) ^bproliferation was assayed by [^3H]thymidine incorporation with quadruplicate samples, as described under “Materials and methods”.

DHL-6 = assay: as above; assay type: cell-based; settings: four days
Method: as §1, §2

Daudi = assay: as above; assay type: cell-based; settings: four days
Method: as §1, §2

HL-60 = assay: as above; assay type: cell-based; settings: Homo sapiens, 96 h, four days, read-out: Antiproliferative Activity (IC50, ng/ml)
Method: as §1, §2

K562 = assay: as above; assay type: cell-based; settings: Homo sapiens, 96 h, four days, read-out: Antiproliferative Activity (IC50, ng/ml)
Method: as §1, §2

Kasumi-1 = assay: as above; assay type: cell-based; settings: Homo sapiens, 96 h, four days, read-out: Antiproliferative Activity (IC50, ng/ml)
Method: as §1, §2

NB4 = assay: as above; assay type: cell-based; settings: four days
Method: as §1, §2

[1] = system: Peripheral Human Lymphocytes; assay: as above; assay type: cell-based; settings: Lymphocyte, 72 h, three days, concanavalin A (0.4 μg/ml), read-out: Antiproliferative Activity (IC50, ng/ml)
Method: as §1, §2

RS4;11 = assay: as above; assay type: cell-based; settings: Homo sapiens, 96 h, four days, read-out: Antiproliferative Activity (IC50, ng/ml)
Method: as §1, §2

Reh = assay: as above; assay type: cell-based; settings: Homo sapiens, 96 h, four days, read-out: Antiproliferative Activity (IC50, ng/ml)
Method: as §1, §2

SUPB13 = assay: as above; assay type: cell-based; settings: 96 h, four days, read-out: Antiproliferative Activity (IC50, ng/ml)
Method: as §1, §2

U937 = assay: as above; assay type: cell-based; settings: four days
Method: as §1, §2

c-myc mRNA, HL-60 = assay: c-myc mRNA levels, real time RT-PCR; assay type: cell-based, human; settings: for c-myc mRNA expression, percentage of control: Brusatol (25 ng/ml)
Method: (§3) RNA was extracted from 10^6 cells using TRIZOL® Reagent (Life Technologies). Following isopropanol precipitation, the pellet was washed in 75% aqueous ethanol and the RNA was dissolved in […] of diethyl pyrocarbonate (DEPC)-treated distilled water. Subsequently, the samples were stored at −80° C. RNA quantitation was performed by UV measurement at 260 nm. The cDNA synthesis was performed in a total volume of […], containing 1×TaqManÒ RT buffer, 5.5 mM MgCl2, 2 mM dNTPs mixture, 2.5 mM random hexamers, 4 U RNase inhibitor, 12.5 U MultiScriber RT (Perkin Elmer/Applied Biosystems) and […] of RNA. The reaction was performed for 10 min at 25° C., followed by 48° C. for 30 min and a 5 min incubation step at 95° C. After the reaction, […] of DEPC-treated distilled water was added to each sample and […] was used for each PCR.
(§4) The PCR and subsequent analyses were performed in the GeneAmp 5700 Sequence Detection System (Applied Biosystems). Real-time quantitation was performed using the TaqMan technology of Applied Biosystems (Foster City, Calif., USA). c-Myc primers and probe sequences (5′ to 3′) were as follows: […], […] and […] (Applied Biosystems).
(§5) PCR reactions were performed in triplicate. The PCR reaction mixture contained 300 nM of both primers, 150 nM TaqMan probe, and 1×TaqMan Universal Master Mix (Applied Biosystems). The reactions first were incubated at 50° C. for 2 min, followed by 10 min at 95° C. The PCR itself consisted of 40 cycles with 15 s at 95° C. and 1 min at 60° C. each. The fluorescence signal was measured during the last 30 s of the annealing/extension phase. After the PCR, a fluorescence threshold value was set and threshold cycle (Ct) values were determined, i.e., the fractional cycle at which the fluorescence signal reached this threshold. These values were used for further calculations.
(§6) β-Actin (TaqMan PDAR control, Applied Biosystems) was used as an endogenous reference to correct for any differences in the amount of total RNA used for a reaction and to compensate for different levels of inhibition during reverse transcription of RNA into cDNA. c-Myc and β-actin expression were related to a standard curve derived from a serial dilution of K562 cDNA with dH2O. Also, c-Myc and β-actin quantities were expressed in terms of ng of K562 RNA yielding the same level of expression. Subsequently, normalization was achieved by dividing the expression level of c-Myc by the β-actin expression level. Finally, results were expressed as a percentage, where the level of c-Myc observed in the DMSO-treated samples was considered as 100%.
(§7) Cells were treated with brusatol (25 ng/ml) or bruceantin (10 ng/ml) for 4 or 24 h and then analyzed for c-myc and β-actin mRNA using real time RT-PCR. Results are shown as percentage of c-myc mRNA expression of control (0.1%, v/v, DMSO) values. Results are the mean of triplicate samples (±standard deviation). c-Myc mRNA values were normalized relative to β-actin.

c-myc mRNA, BV173 = assay: c-myc mRNA levels, real time RT-PCR; assay type: cell-based; settings: Brusatol (25 ng/ml)
Method: as §3, §4, §5, §6, §7

c-myc mRNA, Daudi = assay: c-myc mRNA levels, real time RT-PCR; assay type: cell-based; settings: Brusatol (25 ng/ml)
Method: as §3, §4, §5, §6, §7

c-myc mRNA, K562 = assay: c-myc mRNA levels, real time RT-PCR; assay type: cell-based; settings: for c-myc mRNA expression, percentage of control: Brusatol (25 ng/ml)
Method: as §3, §4, §5, §6, §7

c-myc mRNA, Kasumi-1 = assay: c-myc mRNA levels, real time RT-PCR; assay type: cell-based; settings: Brusatol (25 ng/ml)
Method: as §3, §4, §5, §6, §7

c-myc mRNA, NB4 = assay: c-myc mRNA levels, real time RT-PCR; assay type: cell-based; settings: Brusatol (25 ng/ml)
Method: as §3, §4, §5, §6, §7

c-myc mRNA, RS4;11 = assay: c-myc mRNA levels, real time RT-PCR; assay type: cell-based; settings: Brusatol (25 ng/ml)
Method: as §3, §4, §5, §6, §7

c-myc mRNA, Reh = assay: c-myc mRNA levels, real time RT-PCR; assay type: cell-based; settings: Brusatol (25 ng/ml)
Method: as §3, §4, §5, §6, §7

c-myc mRNA, SUPB13 = assay: c-myc mRNA levels, real time RT-PCR; assay type: cell-based; settings: Brusatol (25 ng/ml)
Method: as §3, §4, §5, §6, §7

c-myc mRNA, U937 = assay: c-myc mRNA levels, real time RT-PCR; assay type: cell-based; settings: Brusatol (25 ng/ml)
Method: as §3, §4, §5, §6, §7

Compound: COC(=O)[C@@]12OC[C@]34[C@H]([C@@H](O)[C@@H]1O)[C@@]1(C)CC(=O)C(O)=C(C)[C@@H]1C[C@H]3OC(=O)[C@H](OC(=O)C=C(C)C)[C@@H]24 [compound 1, brusatol]
- Antiproliferative Activity (IC50, ng/ml) (BV173): No effect
- Antiproliferative Activity (IC50, ng/ml) (DHL-6): No effect
- Antiproliferative Activity (IC50, ng/ml) (Daudi): No effect
- IC50 (HL-60): 25 ± 0.5 ng/mL (≈ 0.048 µM)
- IC50 (K562): 10 ± 0.2 ng/mL (≈ 0.0192 µM)
- IC50 (Kasumi-1): 7 ± 0.6 ng/mL (≈ 0.0134 µM)
- Antiproliferative Activity (IC50, ng/ml) (NB4): No effect
- IC50 [1]: 7.5 ± 0.3 ng/mL (≈ 0.0144 µM)
- IC50 (RS4;11): 12.5 ± 0.6 ng/mL (≈ 0.024 µM)
- IC50 (Reh): 37 ± 5.6 ng/mL (≈ 0.0711 µM)
- IC50 (SUPB13): 37 ± 1.9 ng/mL (≈ 0.0711 µM)
- Antiproliferative Activity (IC50, ng/ml) (U937): No effect
- decrease in c-Myc mRNA levels (c-myc mRNA, HL-60; 4 h treatment): about 50%
- c-myc mRNA expression, percentage of control (c-myc mRNA, HL-60; 4 h): 54 ± 2 %
- c-myc mRNA expression, percentage of control (c-myc mRNA, HL-60; 24 h): 11 ± 2 %
- c-myc mRNA expression, percentage of control (c-myc mRNA, BV173; 4 h): 78 ± 12 %
- c-myc mRNA expression, percentage of control (c-myc mRNA, BV173; 24 h): 45 ± 0 %
- c-myc mRNA expression, percentage of control (c-myc mRNA, Daudi; 4 h): 100 ± 7%
- c-myc mRNA expression, percentage of control (c-myc mRNA, Daudi; 24 h): 84 ± 1 %
- decrease in c-Myc mRNA levels (c-myc mRNA, K562; 4 h treatment): about 40%
- c-myc mRNA expression, percentage of control (c-myc mRNA, K562; 4 h): 62 ± 4 %
- c-myc mRNA expression, percentage of control (c-myc mRNA, K562; 24 h): 45 ± 6 %
- c-myc mRNA expression, percentage of control (c-myc mRNA, Kasumi-1; 4 h): 27 ± 5 %
- c-myc mRNA expression, percentage of control (c-myc mRNA, Kasumi-1; 24 h): 31 ± 3 %
- c-myc mRNA expression, percentage of control (c-myc mRNA, NB4; 4 h): 34 ± 4 %
- c-myc mRNA expression, percentage of control (c-myc mRNA, NB4; 24 h): 24 ± 3 %
- c-myc mRNA expression, percentage of control (c-myc mRNA, RS4;11; RS4,11, 24 h): 37 ± 2 %
- c-myc mRNA expression, percentage of control (c-myc mRNA, RS4;11; RS4;11, 4 h): 54 ± 5 %
- c-myc mRNA expression, percentage of control (c-myc mRNA, Reh; 4 h): 87 ± 2%
- c-myc mRNA expression, percentage of control (c-myc mRNA, Reh; 24 h): 38 ± 3 %
- c-myc mRNA expression, percentage of control (c-myc mRNA, SUPB13; 4 h): 27 ± 3 %
- c-myc mRNA expression, percentage of control (c-myc mRNA, SUPB13; 24 h): 24 ± 1 %
- c-myc mRNA expression, percentage of control (c-myc mRNA, U937; 4 h): 103 ± 1%
- c-myc mRNA expression, percentage of control (c-myc mRNA, U937; 24 h): 19 ± 1 %
